Where two headings read alike, the source gives them in different places.

In series [1] the target is T1, CB1 receptor (Mus musculus, UniProt P47746).
T1 construct: crude membranes from mouse brain for CB1 receptor; from tissue; host or cells: mouse brain membranes (crude / P2)
Briefly: [3H]CP-55,940 radioligand displacement assay. It counts as binding. On the procedure: Radioligand binding assays. BNS-002 binding to CB1 receptor was assessed in competition displacement assays using [^3H]CP-55,940 as the radioligand and crude membranes from mouse brain for CB1 receptor. All data were in triplicates with Ki values determined from three independent experiments.
Radioligand binding assay. Binding of the tested compounds to CB1 receptor was assessed in competition displacement assays using [3H]CP-55,940 as the radioligand and crude membranes from mouse brain for CB1 receptor. Membranes were extracted according to an established protocol previously described by Catani V. M. and Gasperi V.. Compounds were tested at different concentrations (10-5M-10-11M) and their ability to displace [3H]CP-55,940 was evaluated. Membranes with bound [3H]CP-55,940 were separated and washed from free ligand by vacuum filtration and bound [3H]CP-55,940 radioactivity was measured using a […]. All data were in triplicates with Ki values extracted by nonlinear regression analysis using GraphPad Prism software.

Series [2] concerns mice. Briefly: Centrally-mediated hyperactivity / activity profile. The class given is in vivo, mouse. To be noted: for activity profile / hyperactivity vs vehicle group: single dose IP: rimonabant 10, TMP 35, EST 40, IDB 20 mg/kg. On the procedure:
(§1) Locomotor activity. Locomotor activity was quantified by the number of disruptions of infrared XYZ beam arrays with a beam spacing of 0.25 cm in the Promethion High-Definition Behavioral Phenotyping System (Sable Instruments, Inc., Las Vegas, NV, USA).
Centrally-mediated hyperactivity profile. […] Mice were placed in metabolic cages and their activity profile was evaluated. Locomotor activity was quantified by the number of disruptions of infrared XYZ beam arrays with a beam spacing of 0.25 cm in the Promethion High-Definition Behavioral Phenotyping System (Sable Instruments, Inc., Las Vegas, NV, USA).

Series [3] deals with mice with diet-induced obesity (DIO). The series can be described thus: Serum lipids (dyslipidemia) in DIO mice. It counts as in vivo, mouse. The settings on record: 20 mg/kg/day for 20 days. On the procedure:
(§2) Blood and urine biochemistry. Serum and urine levels of creatinine as well as serum levels of ALT, AST, ALP, HDL, LDL, TG and cholesterol were determined by using the Cobas C-111 chemistry analyzer (Roche, Switzerland). Creatinine clearance was calculated using urine and serum creatinine levels (CCr mL/h=Urine creatinine mg/dL×Urine volume/Serum creatinine mg/dL×24 hrs). Serum insulin levels were measured by an ELISA kit (Crystal Chem, Inc., Downers Grove, IL, USA). Fasting blood glucose was measured using the Elite glucometer (Bayer, Pittsburgh, PA).

For series [4] the test system is unchanged. Briefly: Glycemic control (ipGTT, ipIST, glucose, insulin) in DIO mice. It counts as in vivo, mouse. On the procedure: Glucose tolerance (ipGTT) test and insulin sensitivity tests (ipIST). Mice that fasted overnight were injected with glucose (1.5 g/kg, ip), followed by a tail blood collection at 0, 15, 30, 45, 60, 90, and 120 minutes. Blood glucose levels were determined using the Elite glucometer (Bayer, Pittsburgh, PA). On the following day, mice were fasted for 6 h before receiving insulin (0.75 U/kg, i.p.; Eli Lilly, […], USA or Actrapid® vial, novo nordisk A/S, Denmark), and blood glucose levels were determined at the same intervals as above.
as §2

For series [5] the test system is unchanged. The series can be described thus: HFD-induced hepatic steatosis and liver injury. The class given is in vivo, mouse. On the procedure:
as §2
Histopathological Analyses. 5 μm paraffin-embedded liver sections from 5 animals per group were stained with hematoxylin-eosin staining. Liver images were captured with a Zeiss AxioCam ICc5 color camera mounted on a Zeiss Axio Scope.A1 light microscope and taken from 10 random 40× fields of each animal.

Series [6] shares this test system. Briefly: Multi-parameter metabolic assessment (indirect calorimetry) in DIO mice. It counts as in vivo, mouse. On the procedure: Multi-parameter metabolic assessment. Metabolic profile of the mice was assessed by using the Promethion High-Definition Behavioral Phenotyping System (Sable Instruments, Inc., Las Vegas, NV, USA). Data acquisition and instrument control were performed using MetaScreen software version 2.2.18.0, and the obtained raw data were processed using ExpeData version 1.8.4 using an analysis script detailing all aspects of data transformation. Mice with free access to food and water were subjected to a standard 12 h light/12 h dark cycle, which consisted of a 48 h acclimation period followed by 24 h of sampling. Respiratory gases were measured by using the GA-3 gas analyzer (Sable Systems, Inc., Las Vegas, NV, USA) using a pull-mode, negative-pressure system. Air flow was measured and controlled by FR-8 (Sable Systems, Inc., Las Vegas, NV, USA), with a set flow rate of 2000 mL/min. Water vapor was continuously measured and its dilution effect on O2 and CO2 was mathematically compensated. Effective mass was calculated by [body mass]^0.75. Fat oxidation (FO) and carbohydrate oxidation (CHO) were calculated as FO=1.69×VO2−1.69×VCO2 and CHO=4.57×VCO2−3.23×VO2 and expressed as g/d/kg^eff.Mass.

Series [7] has as its target T1, CB1 receptor. The series can be described thus: [35S]GTPγS binding in mouse brain membranes. It counts as biochemical. On the procedure:
[^35S]GTPγS binding. Mouse brains were dissected and P2 membranes prepared and resuspended at ˜6 μg protein/μL in 1 ml assay buffer (50 mM Tris HCl, 9 mM MgCl2, 0.2 mM EGTA, 150 mM NaCl; pH 7.4). […] Briefly, membranes (10 μg protein) were incubated in assay buffer containing 100 μM GDP, 0.05 nM [^35S]GTPγS, test compounds at 1 nM-1 μM, and 1.4 mg/mL fatty acid-free BSA in siliconized glass tubes. Bound ligand was separated from free by vacuum filtration. Non-specific binding was determined using 10 μM GTPS. Basal binding was assayed in the absence of the ligand and in the presence of GDP.

Series [8] has as its system mice with diet-induced obesity (DIO). Briefly: HFD-induced kidney hyperfiltration. To be noted: IDB, compared to the control. It counts as in vivo, mouse. On the procedure: as §2
Series [9] shares this test system. The series can be described thus: Body weight, adiposity and food intake in diet-induced obese mice. The class given is in vivo, mouse. An excerpt:
Mice. The experimental protocol used was approved by the Institutional Animal Care and Use Committee of the Hebrew University, which is an AAALAC International accredited institute. Male 6 week old C57Bl/6J mice were obtained from Harlan Laboratories. Mice were maintained under a 12-h light/dark cycle and fed ad libitum. To generate diet-induced obesity, C57Bl6/J mice were fed either a high-fat diet (HFD) (60% of calories from fat, 20% from protein, and 20% from carbohydrates; Research Diet, D12492) or a standard laboratory diet (STD, 14% fat, 24% protein, 62% carbohydrates; NIH-31 rodent diet) for 14 weeks.
Age-matched control mice on STD received vehicle daily. Body weight and food intake were monitored daily. Total body fat and lean masses were determined by EchoMRI-100H™ (Echo Medical Systems LLC, Houston, TX, USA). 24 h urine was collected one week before euthanasia using mouse metabolic cages (CCS2000 Chiller System, Hatteras Instruments, NC, USA). At weeks 20 mice were euthanized by a cervical dislocation under anesthesia, the kidneys, brain, liver, fat pads, and muscles were removed and weighed, and samples were either snap-frozen or fixed in buffered 4% formalin Trunk blood was collected for determining the biochemical parameters.

The test system of series [10] is mice. The series can be described thus: Antagonizing cannabinoid (HU-210)-induced hypomotility. The class given is in vivo, mouse. On the procedure: as §1
Antagonizing cannabinoid-induced hypomotility. The ability of the different compounds to inhibit the hypomotility induced by HU210 (cannabinoid agonist) was evaluated. […] A half an hour thereafter, mice received a single dose of HU210 (30 ug/kg, IP) and their locomotor activity was evaluated as described above.

The mark [11] stands for this setting: mice on high-fat diet, 20 mg/kg/day for 20 days.
Where [12] appears, read: DIO mice, 20 mg/kg/day for 20 days.

T1 sequence (P47746 whole entry): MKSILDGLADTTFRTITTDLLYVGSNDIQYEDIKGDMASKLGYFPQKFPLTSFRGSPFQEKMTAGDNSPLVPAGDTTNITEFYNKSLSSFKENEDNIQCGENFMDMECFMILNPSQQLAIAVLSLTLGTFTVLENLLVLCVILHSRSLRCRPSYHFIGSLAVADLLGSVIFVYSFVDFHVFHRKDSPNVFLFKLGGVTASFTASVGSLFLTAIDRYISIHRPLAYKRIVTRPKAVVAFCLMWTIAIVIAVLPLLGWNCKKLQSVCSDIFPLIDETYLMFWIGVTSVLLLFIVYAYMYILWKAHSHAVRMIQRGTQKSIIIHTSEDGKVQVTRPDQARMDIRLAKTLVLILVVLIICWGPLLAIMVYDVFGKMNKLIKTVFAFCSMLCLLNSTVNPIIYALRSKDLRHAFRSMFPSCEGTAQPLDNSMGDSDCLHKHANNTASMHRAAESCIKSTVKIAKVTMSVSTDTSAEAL

On CB1 receptor [1], `Cc1c(C(=O)OC2CC(C)(C)N([O])C(C)(C)C2)nn(-c2ccc(Cl)cc2Cl)c1-c1ccc(Cl)cc1` [EST, 2,2,6,6-tetramethyl-1-piperidin-4-yl 5-(4-chlorophenyl)-1-(2,4-dichlorophenyl)-4-methyl-1H-pyrazole-3-carboxylate] displayed an inhibition constant Ki of 0.37 to 7.81 nM. For the same molecule, the “activity profile / hyperactivity vs vehicle group” value in the series on mice [2] is listed as “no significant hyperactivity”.
Take `COC1=C(OC)C(=O)C(CCCCCCCCCCOC(=O)c2nn(-c3ccc(Cl)cc3Cl)c(-c3ccc(Cl)cc3)c2C)=C(C)C1=O` [IDB, 10-(4,5-dimethoxy-2-methyl-3,6-dioxocyclohexa-1,4-dien-1-yl)decyl 5-(4-chlorophenyl)-1-(2,4-dichlorophenyl)-4methyl-1H-pyrazole-3-carboxylate]: on CB1 receptor [1] ([3H]CP-55,940, crude membranes from mouse brain, range of Ki values (FIGS. 12-14), read-out: Ki values varying for each substance, ranging from), the Ki lay in the range of 1.9 to 135 nM. Moreover, the Ki at CB1 receptor [1] ([3H]CP-55,940, crude membranes from mouse brain, read-out: Ki for CB1 receptor) is 256 nM. Also, in [3], the “dyslipidemia in DIO mice” value is “improve”. For the same molecule, in series [3] (DIO mice), the HDL entry is on record as “reduce”, the HDL-to-LDL ratio entry is given as “increase”, the LDL result is “reduce” and the total cholesterol result is recorded as “reduce”. Besides, the triglycerides entry in [3] (DIO mice) is “reduce”. In [4] (setting [11]), the fasting glucose levels result is “reduced”, the fed glucose levels result is on record as “reduced”, the glucose tolerance entry is given as “reduced” and the glycosuria entry was “increases”. Further, in series [4] (setting [11]), the insulin sensitivity result is listed as “improved”. Moreover, in series [5] (20 mg/kg/day for 20 days), the “HFD-induced hepatic steatosis and liver injury” value is “reduce”; the “liver enzymes (AST, ALT, and ALP)” value is on record as “reduction”; the liver weight entry is “decrease”. In addition, the “activity profile / hyperactivity vs vehicle group” value in the series with mice [2] is “no significant hyperactivity”. In addition, the “metabolic parameters (respiratory quotient, VO2, VCO2, total energy expenditure, fat oxidation, carbohydrate oxidation)” value in [6] (20 mg/kg/day for 20 days, over a 24 hr period) was “significant changes”. On CB1 receptor [7], the “functional profile by GTPγS binding (inverse agonism)” value is recorded as “inverse agonism profile”. For the same molecule, in [8], the HFD-induced kidney hyperfiltration entry was “no effect”. Further, in series [9] (setting [12]), the body weight entry is listed as “reduced”; the “daily and total food intake” value is “reduced”; the fat mass result was “reduced”; the lean mass entry was “increased”.
At CB1 receptor [1], `Cc1c(C(=O)NC2CC(C)(C)N([O])C(C)(C)C2)nn(-c2ccc(Cl)cc2Cl)c1-c1ccc(Cl)cc1` [TMP, 5-(4-chlorophenyl)-1-(2,4-dichlorophenyl)-4-methyl-N-(2,2,6,6-tetramethyl-1-oxo-1-piperidin-4-yl)-1H-pyrazole-3-carboxamide] showed a Ki of 1.69 to 446 nM. The “activity profile / hyperactivity vs vehicle group” value in the series on mice [2] is “no significant hyperactivity”.
On to `Cc1c(C(=O)NN2CCCCC2)nn(-c2ccc(Cl)cc2Cl)c1-c1ccc(Cl)cc1` [rimonabant, reference compound], for which, in series [4] (DIO mice, 10 mg/kg/d ip), the HFD-induced glucose intolerance result is “completely reversed” and the HFD-induced hyperglycemia entry is given as “completely reversed”. Besides, in series [5] (DIO mice, 10 mg/kg/d ip), the “HFD-induced hepatic steatosis (fat vacuoles in the liver)” value is given as “completely reversed”. For the same molecule, the “activity profile in mice” value with mice [2] (rimonabant 10 mg/kg ip, BNS-002 10, 20 and 50 mg/kg ip) is listed as “marked increase”. Besides, the “activity profile / hyperactivity vs vehicle group” value in the series with mice [2] is reported as “marked increase”. In series [6] (DIO mice, 10 mg/kg/d ip), the “HFD-induced reduction in VO2” value is on record as “upregulate”, the “HFD-induced reduction in fat oxidation” value is recorded as “upregulate” and the “HFD-induced reduction in total energy expenditure” value was “upregulate”. Also, in series [9] (10 mg/kg/d ip, 28 days), the “increased adiposity of mice on HFD” value is given as “significantly reduced” and the “overweight of mice on HFD” value is on record as “significantly reduced”. Further, in series [9] (7 days, rimonabant 10 mg/kg/d, BNS-002 30 mg/kg ip), the “overweight of mice on HFD” value is given as “significantly reduced”. The total caloric intake result in series [9] (DIO mice, 10 mg/kg/d ip) is “ability to reduce”. Further, the “hypomotility induced by HU210” value in the series with mice [10] (HU210 30 ug/kg IP, rimonabant 10, TMP 35, EST 40, IDB 20 mg/kg IP) is “significantly blocked”. Moreover, the “increase in immobility induced by HU-210” value in the series with mice [10] (HU-210 30 μg/kg ip, rimonabant 10 mg/kg ip, BNS-002 10, 20 and 50 mg/kg) is given as “completely blocked”.

The values above are taken from patent US12473270B2, “CB1R receptor blockers with acyclic backbones” (YISSUM RESEARCH DEVELOPMENT COMPANY OF THE HEBREW …, priority 2019, dated 2025).
